Tests used:
Format in all cases: in vivo
[1] = tested on: Canada thistle (CIRAR, Cirsium arvense); assay: Greenhouse postemergence trial, visual injury on Canada thistle; settings: Table 19
Excerpt: (§1) Greenhouse Trial Methodology—Evaluation of Postemergence Herbicidal Safening in Crops
(§2) Seeds of the desired test plant species were planted in a 90:10% v/v (volume/volume) mixture of PRO-MIX® BX (Premier Tech Horticulture, Quakertown, PA, USA) and PROFILE® GREENS GRADE™ (Profile Products LLC, Buffalo Grove, IL, USA) planting mixture, which typically has a pH of 5.2 to 6.2 and an organic matter content of at least 50 percent, in plastic pots with a surface area of 103.2 square centimeters (cm^2). When required to ensure good germination and healthy plants, a fungicide treatment and/or other chemical or physical treatment was applied. The plants were grown for 7-36 days (d) in a greenhouse with an approximate 14-hour (h) photoperiod which was maintained at about 23° C. during the day and 22° C. during the night. Nutrients and water were added on a regular basis and supplemental lighting was provided with overhead metal halide 1000-Watt lamps as necessary. The plants were employed for testing when they reached the second or third true leaf stage.
Emulsifiable concentrates of each of each pyridine carboxylate herbicide (Compound A or Compound B) were prepared at 100 grams acid equivalent per liter (g ae/L). An aliquot of each emulsifiable concentrate was placed in a 25 mL glass vial and diluted with an aqueous mixture of 1.25% (v/v) ACTIROB® B esterified rapeseed oil (Bayer Crop Science, Research Triangle Park, NC, USA) or MSO® Concentrate with LECI-TECH® methylated soybean oil (Loveland Products, Loveland, CO, USA) to obtain concentrated stock solutions at the highest application rate for each herbicide, based upon a 12 milliliter (mL) application volume at a rate of 187 liters per hectare (L/ha). The concentrated stock solutions were further diluted with an aqueous mixture of 1.25% v/v ACTIROB® B or MSO® Concentrate with LECI-TECH® to obtain stock solutions at reduced application rates for each herbicide. Spray solutions of the herbicide combinations (Compound A or Compound B plus safener) were prepared by adding weighed amounts or aliquots of the safener to the stock solutions of Compound A or Compound B to form 12-mL spray solutions in two-way combinations. […]
(§3) The treated plants and control plants were placed in a greenhouse as described above and watered by sub-irrigation to prevent wash-off of the test compounds. After 20-22 d, the condition of the test plants as compared with that of the control plants was determined visually and scored on a scale of 0 to 100 percent where 0 corresponds to no injury and 100 corresponds to complete kill.

[2] = tested on: Fagopyrum esculentum (common buckwheat), FAGES; assay: Greenhouse postemergence trial, visual injury on common buckwheat
Excerpt: as §1, §2
Emulsifiable concentrates of each of each pyridine carboxylate herbicide (Compound A or Compound B) were prepared at 100 grams acid equivalent per liter (g ae/L). An aliquot of each emulsifiable concentrate was placed in a 25 mL glass vial and diluted with an aqueous mixture of 1.25% (v/v) ACTIROB® B esterified rapeseed oil (Bayer Crop Science, Research Triangle Park, NC, USA) or MSO® Concentrate with LECI-TECH® methylated soybean oil (Loveland Products, Loveland, CO, USA) to obtain concentrated stock solutions at the highest application rate for each herbicide, based upon a 12 milliliter (mL) application volume at a rate of 187 liters per hectare (L/ha). The concentrated stock solutions were further diluted with an aqueous mixture of 1.25% v/v ACTIROB® B or MSO® Concentrate with LECI-TECH® to obtain stock solutions at reduced application rates for each herbicide. Spray solutions of the herbicide combinations (Compound A or Compound B plus safener) were prepared by adding weighed amounts or aliquots of the safener to the stock solutions of Compound A or Compound B to form 12-mL spray solutions in two-way combinations.
The spray solutions were applied to the plant material with an overhead Mandel track sprayer equipped with 8002E nozzles calibrated to deliver 187 L/ha over an application area of 0.503 square meters (m^2) at a spray height of 18 inches (43 centimeters (cm)) above the average plant canopy. Control plants were sprayed in the same manner with the solvent blank. All herbicide (component a) application rates are given as “g ae/ha” and all safener (component b) application rates are given as “g ai/ha.”
as §3

[3] = tested on: Matricaria chamomilla (wild chamomile), MATCH; assay: Greenhouse postemergence trial, visual injury on wild chamomile; settings: herbicide alone 20 g/ha
Protocol: Greenhouse Trial Methodology-Evaluation of Postemergence Herbicidal […] in Crops […] When required to ensure good germination and healthy plants, a fungicide treatment and/or other chemical or physical treatment was applied. The plants were grown for 7-36 days (d) in a greenhouse with an approximate 14-hour (h) photoperiod which was maintained at about 23° C. during the day and 22° C. during the night. Nutrients and water were added on a regular basis and supplemental lighting was provided with overhead metal halide 1000-Watt lamps as necessary. The plants were employed for testing when they reached the second or third true leaf stage. Emulsifiable concentrates of each of each pyridine carboxylate herbicide (Compound A or Compound B) were prepared at 100 grams acid equivalent per liter (g ae/L). […] The concentrated stock solutions were further diluted with an aqueous mixture of 1.25% […] or MSO® Concentrate with LECI-TECH® to obtain stock solutions at reduced application rates for each herbicide. Spray solutions of the herbicide combinations (Compound A or Compound B plus safener) were prepared by adding weighed amounts or aliquots of the safener to the stock solutions of Compound A or Compound B to form 12-mL spray solutions in two-way combinations. […] Control plants were sprayed in the same manner with the solvent blank. All herbicide (component a) application rates are given as “g ae/ha” and all safener (component b) application rates are given as “g ai/ha.” The treated plants and control plants were placed in a greenhouse as described above and watered by sub-irrigation to prevent wash-off of the test compounds.

Structure (SMILES)	% visual injury, Ob ([1]; CQC-mexyl 20 g/ha alone) [%]	% visual injury, Ob ([1]; CQC-mexyl 40 g/ha alone) [%]	% visual injury, Ob ([1]; CQC-mexyl 80 g/ha alone) [%]	% visual injury, Ob ([2]; safener alone 5 g/ha) [%]	% visual injury, Ob ([2]; safener alone 10 g/ha) [%]	% visual injury, Ob ([2]; safener alone 20 g/ha) [%]	% visual injury, Ob ([2]; safener alone 40 g/ha) [%]	% visual injury, Ob [3] [%]	% visual injury, Ob ([1]; Compound A 20 g/ha alone) [%]
CCCCCC(C)OC(=O)COc1ccc(Cl)c2cccnc12 (stereo not drawn) [CQC-mexyl, cloquintocet-mexyl]	0	0	0	0	0	0	0		
N#CCOC(=O)c1nc(-c2ccc3cc[nH]c3c2F)c(F)c(N)c1Cl [Compound A, cyanomethyl 4-amino-3-chloro-5-fluoro-6-(7-fluoro-1H-indol-6-yl)pyridine-2-carboxylate]								50	95

From patent US12310364B2, “Safened compositions comprising pyridine carboxylate herbicides and cloquintocet” (Corteva Agriscience LLC, priority 2018, dated 2025)
